# Laboratory results as given in patent US20230085307A1, “PYRIDAZINONE COMPOUND AND HERBICIDE” (NISSAN CHEMICAL CORPORATION, priority 2019, published 2023).
# Assays:
# Chinese sprangletop = experiment: Test Example 3: herbicidal effect by foliage application, Wagner pot (Table 18, symbol D); assay type: in vivo, chinese sprangletop (Leptochloa chinensis)
# Method in brief: (§1)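 Plants were sown in alluvial soil held under 0.1–0.5 cm standing water and grown 14 days in a greenhouse at 25–30 °C. An emulsifiable formulation, water-diluted to the set dose, was then sprayed onto the foliage, and effects were scored three weeks later using previously defined criteria.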
# blackgrass [1] = experiment: Test Example 4: herbicidal effect by soil treatment (Table 19, symbol J); assay type: in vivo, blackgrass (Alopecurus myosuroides)
# Method in brief: (§2)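 Soil-surface application: an emulsion agent diluted with water to the predetermined dose is sprayed uniformly over seeds lying under roughly 1.5 cm of sterilized diluvial soil. Boxes stay in a greenhouse at 25° C. to 30° C. Three weeks later, each species is graded on previously defined criteria.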
# windgrass [2] = experiment: Test Example 5: herbicidal effect by foliage application, plastic box (Table 20, symbol L); assay type: in vivo, windgrass (Apera spica-venti); conditions: foliage application, evaluated three weeks after application
# Method in brief: (§3)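 Sow seeds spot-wise in sterilized diluvial soil; cover with ~1.5 cm soil. Grow 14 days in greenhouse, 25° C. to 30° C. Spray foliage with emulsion diluted to predetermined amount. Rate effect after 3 weeks.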
# persian speedwell [3] = experiment: Test Example 5: herbicidal effect by foliage application, plastic box (Table 20, symbol R); assay type: in vivo, Persian speedwell (Veronica persica); conditions: foliage application, evaluated three weeks after application
# Method in brief: as §3
# chickweed [4] = experiment: Test Example 5: herbicidal effect by foliage application, plastic box (Table 20, symbol P); assay type: in vivo, common chickweed (Stellaria media); conditions: foliage application, evaluated three weeks after application
# Method in brief: as §3
# lambsquarters [5] = experiment: Test Example 5: herbicidal effect by foliage application, plastic box (Table 20, symbol O); assay type: in vivo, lambsquarters (Chenopodium album); conditions: foliage application, evaluated three weeks after application
# Method in brief: as §3
# Italian ryegrass [6] = experiment: Test Example 5: herbicidal effect by foliage application, plastic box (Table 20, symbol K); assay type: in vivo, Italian ryegrass (Lolium multiflorum); conditions: foliage application, evaluated three weeks after application
# Method in brief: as §3
# redroot pigweed [7] = experiment: Test Example 4: herbicidal effect by soil treatment (Table 19, symbol N); assay type: in vivo, redroot pigweed (Amaranthus retroflexus)
# Method in brief: as §2
# lambsquarters [8] = experiment: Test Example 4: herbicidal effect by soil treatment (Table 19, symbol O); assay type: in vivo, lambsquarters (Chenopodium album)
# Method in brief: as §2
# late watergrass = experiment: Test Example 1: herbicidal activity, application before weed generation under submerged conditions (Table 16, symbol A); assay type: in vivo, late watergrass (Echinochloa oryzicola)
# Method in brief: (§4)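 Emulsion formulation, water-diluted to set dose, was put onto the flooded surface (4 cm depth, alluvial soil) the same day weeds were sown and 2.5-leaf rice transplanted. After 3 weeks at 25-30 °C under glass, each species was rated 0 (≤5% kill) to 5 (≥90% kill).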
# southern crabgrass [9] = experiment: Test Example 5: herbicidal effect by foliage application, plastic box (Table 20, symbol F); assay type: in vivo, southern crabgrass (Digitaria ciliaris); conditions: foliage application, evaluated three weeks after application
# Method in brief: as §3
# rice flat sedge = experiment: Test Example 3: herbicidal effect by foliage application, Wagner pot (Table 18, symbol E); assay type: in vivo, rice flat sedge (Cyperus iria)
# Method in brief: as §1
# barnyard grass [10] = experiment: Test Example 5: herbicidal effect by foliage application, plastic box (Table 20, symbol H); assay type: in vivo, barnyard grass (Echinochloa crus-galli); conditions: foliage application, evaluated three weeks after application
# Method in brief: as §3
# windgrass [11] = experiment: Test Example 4: herbicidal effect by soil treatment (Table 19, symbol L); assay type: in vivo, windgrass (Apera spica-venti)
# Method in brief: as §2
# barnyard grass [12] = experiment: Test Example 4: herbicidal effect by soil treatment (Table 19, symbol H); assay type: in vivo, barnyard grass (Echinochloa crus-galli)
# Method in brief: as §2
# green foxtail [13] = experiment: Test Example 5: herbicidal effect by foliage application, plastic box (Table 20, symbol G); assay type: in vivo, green foxtail (Setaria viridis); conditions: foliage application, evaluated three weeks after application
# Method in brief: as §3
# oval-leafed pondweed = experiment: Test Example 1: herbicidal activity, application before weed generation under submerged conditions (Table 16, symbol C); assay type: in vivo, oval-leafed pondweed (Monochoria vaginalis)
# Method in brief: as §4
# Japanese bulrush = experiment: Test Example 1: herbicidal activity, application before weed generation under submerged conditions (Table 16, symbol B); assay type: in vivo, Japanese bulrush (Schoenoplectus juncoides)
# Method in brief: as §4
# wild oat [14] = experiment: Test Example 4: herbicidal effect by soil treatment (Table 19, symbol I); assay type: in vivo, wild oat (Avena fatua)
# Method in brief: as §2
# chickweed [15] = experiment: Test Example 4: herbicidal effect by soil treatment (Table 19, symbol P); assay type: in vivo, common chickweed (Stellaria media)
# Method in brief: as §2
# green foxtail [16] = experiment: Test Example 4: herbicidal effect by soil treatment (Table 19, symbol G); assay type: in vivo, green foxtail (Setaria viridis)
# Method in brief: as §2
# southern crabgrass [17] = experiment: Test Example 4: herbicidal effect by soil treatment (Table 19, symbol F); assay type: in vivo, southern crabgrass (Digitaria ciliaris)
# Method in brief: as §2
# velvetleaf [18] = experiment: Test Example 4: herbicidal effect by soil treatment (Table 19, symbol M); assay type: in vivo, velvetleaf (Abutilon theophrasti)
# Method in brief: as §2
# wild oat [19] = experiment: Test Example 5: herbicidal effect by foliage application, plastic box (Table 20, symbol I); assay type: in vivo, wild oat (Avena fatua); conditions: foliage application, evaluated three weeks after application
# Method in brief: as §3
# velvetleaf [20] = experiment: Test Example 5: herbicidal effect by foliage application, plastic box (Table 20, symbol M); assay type: in vivo, velvetleaf (Abutilon theophrasti); conditions: foliage application, evaluated three weeks after application
# Method in brief: as §3
# barnyard grass [21] = experiment: Test Example 3: herbicidal effect by foliage application, Wagner pot (Table 18, symbol H); assay type: in vivo, barnyard grass (Echinochloa crus-galli)
# Method in brief: as §1
# Italian ryegrass [22] = experiment: Test Example 4: herbicidal effect by soil treatment (Table 19, symbol K); assay type: in vivo, Italian ryegrass (Lolium multiflorum)
# Method in brief: as §2
# persian speedwell [23] = experiment: Test Example 4: herbicidal effect by soil treatment (Table 19, symbol R); assay type: in vivo, Persian speedwell (Veronica persica)
# Method in brief: as §2
# redroot pigweed [24] = experiment: Test Example 5: herbicidal effect by foliage application, plastic box (Table 20, symbol N); assay type: in vivo, redroot pigweed (Amaranthus retroflexus); conditions: foliage application, evaluated three weeks after application
# Method in brief: as §3
# blackgrass [25] = experiment: Test Example 5: herbicidal effect by foliage application, plastic box (Table 20, symbol J); assay type: in vivo, blackgrass (Alopecurus myosuroides); conditions: foliage application, evaluated three weeks after application
# Method in brief: as §3
# [26] = amount of applied herbicide 320 g/ha
structure (smiles),measurement,setting,value
COCCOCOc1c(C)nn(C)c(=O)c1-c1c(-c2ccc(OCCSC)cc2)sc2ccc(F)cc12 [2-059],"herbicidal effect on D (Chinese sprangletop), rating 0-5",Chinese sprangletop; 269 g/ha,5 (Herbicidal rate of 90% or more (almost completely withered))
same,"herbicidal effect rating, J: blackgrass",blackgrass [1]; 269 g/ha,0 (Herbicidal rate of 5% or less (almost no effect))
same,herbicidal effect on L: windgrass,windgrass [2]; 269 g/ha,5 (Herbicidal rate of 90% or more (almost completely withered))
same,herbicidal effect on R: persian speedwell,persian speedwell [3]; 269 g/ha,5 (Herbicidal rate of 90% or more (almost completely withered))
same,herbicidal effect on P: chickweed,chickweed [4]; 269 g/ha,5 (Herbicidal rate of 90% or more (almost completely withered))
same,herbicidal effect on O: lambsquarters,lambsquarters [5]; 269 g/ha,5 (Herbicidal rate of 90% or more (almost completely withered))
same,herbicidal effect on K: Italian ryegrass,Italian ryegrass [6]; 269 g/ha,5 (Herbicidal rate of 90% or more (almost completely withered))
same,"herbicidal effect rating, N: redroot pigweed",redroot pigweed [7]; 269 g/ha,5 (Herbicidal rate of 90% or more (almost completely withered))
same,"herbicidal effect rating, O: lambsquarters",lambsquarters [8]; 269 g/ha,5 (Herbicidal rate of 90% or more (almost completely withered))
same,Herbicidal effect on A: late watergrass (grade 0-5),late watergrass; 269 g/ha applied herbicide,3 (Herbicidal rate of 40% or more and less than 70%)
same,herbicidal effect on F: southern crabgrass,southern crabgrass [9]; 269 g/ha,5 (Herbicidal rate of 90% or more (almost completely withered))
same,"herbicidal effect on E (rice flat sedge), rating 0-5",rice flat sedge; 269 g/ha,5 (Herbicidal rate of 90% or more (almost completely withered))
same,herbicidal effect on H: barnyard grass,barnyard grass [10]; 269 g/ha,5 (Herbicidal rate of 90% or more (almost completely withered))
same,"herbicidal effect rating, L: windgrass",windgrass [11]; 269 g/ha,4 (Herbicidal rate of 70% or more and less than 90%)
same,"herbicidal effect rating, H: barnyard grass",barnyard grass [12]; 269 g/ha,1 (Herbicidal rate of 5% or more and less than 20%)
same,herbicidal effect on G: green foxtail,green foxtail [13]; 269 g/ha,5 (Herbicidal rate of 90% or more (almost completely withered))
same,Herbicidal effect on C: oval-leafed pondweed (grade 0-5),oval-leafed pondweed; 269 g/ha applied herbicide,4 (Herbicidal rate of 70% or more and less than 90%)
same,Herbicidal effect on B: Japanese bulrush (grade 0-5),Japanese bulrush; 269 g/ha applied herbicide,3 (Herbicidal rate of 40% or more and less than 70%)
same,"herbicidal effect rating, I: wild oat",wild oat [14]; 269 g/ha,0 (Herbicidal rate of 5% or less (almost no effect))
same,"herbicidal effect rating, P: chickweed",chickweed [15]; 269 g/ha,4 (Herbicidal rate of 70% or more and less than 90%)
same,"herbicidal effect rating, G: green foxtail",green foxtail [16]; 269 g/ha,5 (Herbicidal rate of 90% or more (almost completely withered))
same,"herbicidal effect rating, F: southern crabgrass",southern crabgrass [17]; 269 g/ha,4 (Herbicidal rate of 70% or more and less than 90%)
same,"herbicidal effect rating, M: velvetleaf",velvetleaf [18]; 269 g/ha,1 (Herbicidal rate of 5% or more and less than 20%)
same,herbicidal effect on I: wild oat,wild oat [19]; 269 g/ha,4 (Herbicidal rate of 70% or more and less than 90%)
same,herbicidal effect on M: velvetleaf,velvetleaf [20]; 269 g/ha,5 (Herbicidal rate of 90% or more (almost completely withered))
same,"herbicidal effect on H (barnyard grass), rating 0-5",barnyard grass [21]; 269 g/ha,5 (Herbicidal rate of 90% or more (almost completely withered))
same,"herbicidal effect rating, K: Italian ryegrass",Italian ryegrass [22]; 269 g/ha,4 (Herbicidal rate of 70% or more and less than 90%)
same,"herbicidal effect rating, R: persian speedwell",persian speedwell [23]; 269 g/ha,5 (Herbicidal rate of 90% or more (almost completely withered))
same,herbicidal effect on N: redroot pigweed,redroot pigweed [24]; 269 g/ha,5 (Herbicidal rate of 90% or more (almost completely withered))
same,herbicidal effect on J: blackgrass,blackgrass [25]; 269 g/ha,5 (Herbicidal rate of 90% or more (almost completely withered))
CCCCOc1ccc(-c2sc3ccc(Cl)cc3c2-c2c(O)c(C)nn(C)c2=O)cc1 [2-109],herbicidal effect on D: Chinese sprangletop,Chinese sprangletop; [26],2 (Herbicidal rate of 20% or more and less than 40%)
same,"J: blackgrass, herbicidal effect rating",blackgrass [1]; [26],0 (Herbicidal rate of 5% or less (almost no effect))
same,herbicidal effect on L: windgrass,windgrass [2]; 320 g/ha,0 (Herbicidal rate of 5% or less (almost no effect))
same,herbicidal effect on R: persian speedwell,persian speedwell [3]; 320 g/ha,5 (Herbicidal rate of 90% or more (almost completely withered))
same,herbicidal effect on P: chickweed,chickweed [4]; 320 g/ha,4 (Herbicidal rate of 70% or more and less than 90%)
same,herbicidal effect on O: lambsquarters,lambsquarters [5]; 320 g/ha,4 (Herbicidal rate of 70% or more and less than 90%)
same,herbicidal effect on K: Italian ryegrass,Italian ryegrass [6]; 320 g/ha,0 (Herbicidal rate of 5% or less (almost no effect))
same,"N: redroot pigweed, herbicidal effect rating",redroot pigweed [7]; [26],4 (Herbicidal rate of 70% or more and less than 90%)
same,"O: lambsquarters, herbicidal effect rating",lambsquarters [8]; [26],2 (Herbicidal rate of 20% or more and less than 40%)
same,Herbicidal effect on A: late watergrass (grade 0-5),late watergrass; 320 g/ha applied herbicide,0 (Herbicidal rate of 5% or less (almost no effect))
same,herbicidal effect on F: southern crabgrass,southern crabgrass [9]; 320 g/ha,0 (Herbicidal rate of 5% or less (almost no effect))
same,herbicidal effect on E: rice flat sedge,rice flat sedge; [26],2 (Herbicidal rate of 20% or more and less than 40%)
same,herbicidal effect on H: barnyard grass,barnyard grass [10]; 320 g/ha,4 (Herbicidal rate of 70% or more and less than 90%)
same,"L: windgrass, herbicidal effect rating",windgrass [11]; [26],0 (Herbicidal rate of 5% or less (almost no effect))
same,"H: barnyard grass, herbicidal effect rating",barnyard grass [12]; [26],0 (Herbicidal rate of 5% or less (almost no effect))
same,herbicidal effect on G: green foxtail,green foxtail [13]; 320 g/ha,1 (Herbicidal rate of 5% or more and less than 20%)
same,Herbicidal effect on C: oval-leafed pondweed (grade 0-5),oval-leafed pondweed; 320 g/ha applied herbicide,0 (Herbicidal rate of 5% or less (almost no effect))
same,Herbicidal effect on B: Japanese bulrush (grade 0-5),Japanese bulrush; 320 g/ha applied herbicide,3 (Herbicidal rate of 40% or more and less than 70%)
same,"I: wild oat, herbicidal effect rating",wild oat [14]; [26],0 (Herbicidal rate of 5% or less (almost no effect))
same,"P: chickweed, herbicidal effect rating",chickweed [15]; [26],0 (Herbicidal rate of 5% or less (almost no effect))
same,"G: green foxtail, herbicidal effect rating",green foxtail [16]; [26],0 (Herbicidal rate of 5% or less (almost no effect))
same,"F: southern crabgrass, herbicidal effect rating",southern crabgrass [17]; [26],0 (Herbicidal rate of 5% or less (almost no effect))
same,"M: velvetleaf, herbicidal effect rating",velvetleaf [18]; [26],1 (Herbicidal rate of 5% or more and less than 20%)
same,herbicidal effect on I: wild oat,wild oat [19]; 320 g/ha,0 (Herbicidal rate of 5% or less (almost no effect))
same,herbicidal effect on M: velvetleaf,velvetleaf [20]; 320 g/ha,4 (Herbicidal rate of 70% or more and less than 90%)
same,herbicidal effect on H: barnyard grass,barnyard grass [21]; [26],4 (Herbicidal rate of 70% or more and less than 90%)
same,"K: Italian ryegrass, herbicidal effect rating",Italian ryegrass [22]; [26],0 (Herbicidal rate of 5% or less (almost no effect))
same,"R: persian speedwell, herbicidal effect rating",persian speedwell [23]; [26],3 (Herbicidal rate of 40% or more and less than 70%)
same,herbicidal effect on N: redroot pigweed,redroot pigweed [24]; 320 g/ha,5 (Herbicidal rate of 90% or more (almost completely withered))
same,herbicidal effect on J: blackgrass,blackgrass [25]; 320 g/ha,0 (Herbicidal rate of 5% or less (almost no effect))
